Values of other authors in article PMC2760809 (Nucleic Acids Research, 2009).

Target: many RNA molecules, including HIV TAR RNA and group I introns
Settings: read-out: Kd of arginine for RNA molecules

Kd: > 2000 µM
Structure (SMILES): N=C(N)NCCC[C@H](N)C(=O)O [Arginine]
